Results reported in patent US9551706B2, “Density-based methods for separation of materials, monitoring of solid supported reactions and measuring densities of small liquid volumes and solids” (President and Fellows of Harvard College, priority 2007, dated 2017).
Blank lines part the entries; values can stand above or below the compound they belong to.

Tests used:
[1] = Magnetic susceptibility from levitation of a glass bead in solutions of the paramagnetic salt; type: physicochemical; details: four solutions 100-175 mM in 9:1 chlorobenzene-toluene, 23° C.
Protocol: The average magnetic susceptibility for solid Gd(DT3) (in the centimeter-gram-second system of units, cgs (cm^3/mol)) was determined by measuring the magnetic susceptibilities for solutions of Gd(DT3) (χl^SI, International System of Units), and by inputting these values into Equation (3). χl^SI=4πχl^CGS[Gd^3+] (3)
Magnetic susceptibility values were measured for solutions of Gd(DT3) (100-175 mM) in 9:1 chlorobenzene-toluene (23° C.) by levitating a glass bead (ρp=1.0900 g/cm^3) in these solutions (FIG. 12A). This mixture of solvents is adequate because it has a density (ρl=1.082±0.003 g/cm^3) slightly below the density of the glass bead that was used. The vertical position of the glass bead (z) in each solution was determined using a ruler, and the densities of the solutions were measured by weighing 1 mL samples. […]
The remaining variable in Equation (1) that required measuring before the calculation of χl^SI could be completed was the strength of the magnetic field at the surface of the magnet (Bmax). […] This value was determined using solutions of GdCl3 (70-100 mM) with known magnetic susceptibilities and by levitating a glass bead (ρp=1.0200 g/cm^3) in these solutions. […]
The calibrated value for Bmax was used to calculate the χl^SI values for the solutions of Gd(DT3) (using Equation (1) and values for ρl and z that were measured experimentally). […]

[2] = known value; cited from earlier work
[3] = Label-free detection of streptavidin binding to solid-supported biotin by magnetic levitation
Excerpt: Beads of biotin-labeled PEGA polymer swell in water (unlike polystyrene-based solid supports), have a loading capacity of 0.2 mmol amine/g PEGA, and pores of sufficient size for ˜70 kDa proteins to access the biotin on the interior of the polymer. The sensitivity of detection depends directly on the loading capacity (i.e., surface density of reacting groups) of the beads and the molecular weight of the bound molecules. In initial experiments, precipitation was observed after adding proteins to the aqueous Gd^3+ solution, so a Gd3+·DTPA chelate was used instead.
Binding of streptavidin to solid-supported biotin was detected by incubating ˜20 water saturated polymer beads with 20 μL of 0.19-mM protein dissolved in 40-mM potassium phosphate buffer (pH 7.0). After 15 min the solution, was diluted to 1.5 mL to suspend the beads using 210-mM Gd^3+·DTPA in 40-mM potassium phosphate buffer (pH 7.5), and then added ˜20 more biotin-labeled polymer beads. The solution was mixed gently for 5 s with a spatula, and then the cuvette was inserted along the axis of the magnets. After approximately 30 min, all of the beads had clustered into two separate bands (FIG. 19A), the upper one levitating at the same height as the unlabeled PEGA polymer. […]

[4] = Capillary electrophoresis (Job's plot) binding affinity of the DT3 ligand for Gd^3+ in methanol; details: 25° C., 1:1 complex with Gd^3+, read-out: dissociation constant (Kd)
Protocol: FIG. 11 is a plot of peak area of the Gd(DT3) by capillary electrophoresis vs. mole fraction of Gd^3+ and illustrates the Job's plot assay for determination of the stoichiometry of and dissociation constant for Gd(DT3) in methanol.
The binding affinity of the DT3 ligand for Gd^3+ and the stoichiometry of the Gd(DT3) complex was determined using capillary electrophoresis (CE). […] See, FIG. 11. […] Gadolinium(III) chloride (the source of Gd^3+ for these experiments) is insoluble in non-polar organic solvents; the dissociation constants was not measured in these solvents.

Compound: gadolinium(III) diethylenetriamine triacetic acid tetradecane [Gd(DT3)]
- average molar magnetic susceptibility χl^CGS [1]: 0.036±0.003 cm^3/mol

Compound: [Cl][Mn][Cl] [MnCl2]
- molar magnetic susceptibility of the solid salt [2]: 14350×10^−6 cm^3/mol

- non-specific adsorption to unlabeled PEGA polymer (control) ([3]; unlabeled PEGA polymer beads): no obvious non-specific adsorption
Compound: streptavidin: a 53-kDa protein
- binding to solid-supported biotin (levitation band) ([3]; biotin-labeled PEGA beads, 210-mM Gd^3+·DTPA, 40-mM potassium phosphate buffer): binding of streptavidin to the solid-supported biotin

Compound: diethylenetriamine triacetic acid tetradecane [DT3 ligand]
- Kd [4]: 300 nM
